Among the data in PubChem BioAssay (NCI) are TGI and GI50 values, retold here.

“And” between values parts separate entries of the source, which are not always exact repeats. Identical values can stand only once.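 Cultured in 96-well plates, cells were exposed to test compound for 48 hours across five concentrations. GI50 = concentration required for 50% inhibition of growth. The concentration for full growth arrest is given as TGI.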 Bounds are passed on as bounds.

Some test systems named below: A549 NSCLC; ACHN renal; DU-145 prostate; HCT-116 colon; HOP-92 NSCLC; KM12 colon; MDA-N; OVCAR-5 ovarian; PC-3 prostate; RXF 393 renal; SN12C renal; SR leukemia; UO-31 renal; HL-60(TB) leukemia; T-47D breast.
Holding throughout (assay): NCI anticancer screen, dose series, 48 h

Take `CSCCCNC(=O)c1csc(-c2csc(CCNC(=O)CNC(=O)OC(C)(C)C)n2)n1`: the TGI with A549 NSCLC, with ACHN renal, in the assay on DU-145 prostate, in the assay on HCT-116 colon, in the assay with HOP-92 NSCLC and in the assay on KM12 colon was above 100 µM each time. Further, the TGI with MDA-N, in the assay on OVCAR-5 ovarian, with PC-3 prostate, in the assay on RXF 393 renal, in the assay on SN12C renal and in the assay with SR leukemia was above 100 µM throughout. For the same molecule, in the assay with UO-31 renal, the TGI is above 100 µM.

As to `CCCCCCCCC#CCCCCCCC(F)C(=O)O` (configuration not stated), the TGI in the assay with A549 NSCLC is above 100 µM; with ACHN renal it was above 100 µM; in the assay on DU-145 prostate it was above 100 µM; in the assay on HCT-116 colon, above 100 µM; in the assay with HL-60(TB) leukemia, 83.6 µM; in the assay with HOP-92 NSCLC, above 100 µM. Besides, the TGI in the assay on KM12 colon, in the assay with OVCAR-5 ovarian, in the assay with PC-3 prostate, with RXF 393 renal, with SR leukemia and in the assay with T-47D breast was above 100 µM in each case. In the assay with UO-31 renal, the TGI was above 100 µM.

Turning to `O=C1C[C@@H]2[C@@H](C=CC23CCCC3)N1O`, the TGI in the assay on A549 NSCLC, with ACHN renal, with HCT-116 colon, in the assay with HL-60(TB) leukemia, in the assay on KM12 colon and in the assay on OVCAR-5 ovarian was above 100 µM throughout. The TGI in the assay with RXF 393 renal, with SN12C renal and in the assay with UO-31 renal was above 100 µM each time.

As for `COc1cc2c(c(OC)c1OC)[C@@H]1CCCCC[C@@H]1CCC2=O`, the TGI in the assay on A549 NSCLC was above 100 µM; with ACHN renal, above 100 µM; in the assay with HCT-116 colon it was above 100 µM; with HL-60(TB) leukemia it was above 63.4 µM; in the assay on HOP-92 NSCLC, above 100 µM; in the assay on KM12 colon, above 100 µM. Further, the TGI with OVCAR-5 ovarian was above 100 µM; with RXF 393 renal it was above 100 µM; in the assay with SN12C renal it was above 100 µM; with SR leukemia, above 59.2 µM; with UO-31 renal, above 100 µM.

On to `O=C1CSc2ccnc(=O)n21`, for which the TGI in the assay with A549 NSCLC, with ACHN renal, in the assay on DU-145 prostate, in the assay on HCT-116 colon, with HL-60(TB) leukemia and with HOP-92 NSCLC was above 100 µM each time. Besides, the TGI in the assay with MDA-N, in the assay with OVCAR-5 ovarian, in the assay on PC-3 prostate, in the assay with RXF 393 renal, in the assay on SN12C renal and in the assay with SR leukemia was above 100 µM each time. The TGI in the assay on UO-31 renal is above 100 µM.

Consider `COC(=O)C(C(=O)C(=O)Nc1nc2ccc(OC)cc2s1)c1cnc2ccccc2n1` (configuration not stated), for which the TGI in the assay with A549 NSCLC, in the assay with ACHN renal, in the assay with HCT-116 colon, with HOP-92 NSCLC, in the assay with KM12 colon and in the assay on OVCAR-5 ovarian was above 100 µM throughout. Also, the TGI in the assay with RXF 393 renal, in the assay with SN12C renal and with UO-31 renal was above 100 µM throughout.

As for `CC(C)(C)C1CC[C@H](O)[C@H]([C@@H](O)CC2CC(=O)N(c3ccccc3)C(=O)C2)C1` (some centres not stated), the TGI is above 100 µM with A549 NSCLC; above 100 µM in the assay on ACHN renal; above 100 µM in the assay with DU-145 prostate; above 100 µM in the assay with HCT-116 colon; 77.5 µM in the assay on HL-60(TB) leukemia; above 100 µM with HOP-92 NSCLC. Also, the TGI in the assay on KM12 colon, in the assay on MDA-N, in the assay with OVCAR-5 ovarian, in the assay with PC-3 prostate, in the assay on RXF 393 renal and in the assay on SN12C renal was above 100 µM in each case. For the same molecule, the TGI in the assay with SR leukemia and with UO-31 renal was above 100 µM throughout.

With `CCc1n[nH]c(=O)n1N`, the TGI with A549 NSCLC, in the assay with ACHN renal, in the assay with DU-145 prostate, in the assay on HCT-116 colon, in the assay on HL-60(TB) leukemia and with HOP-92 NSCLC was above 100 µM throughout. In addition, the TGI in the assay with KM12 colon, in the assay with OVCAR-5 ovarian, with PC-3 prostate, in the assay with SN12C renal, in the assay with SR leukemia and with T-47D breast was above 100 µM in each case. For the same molecule, the TGI with UO-31 renal is above 100 µM.

For the molecule `COc1cc(CNc2ccc(C)cc2)cc(OC)c1OC`, the TGI in the assay on A549 NSCLC was above 100 µM; in the assay with ACHN renal, above 100 µM; with HOP-92 NSCLC, above 100 µM; with KM12 colon, 2.33 µM; with OVCAR-5 ovarian, above 100 µM; in the assay on SN12C renal, above 87.6 µM. Moreover, the TGI in the assay on SR leukemia and in the assay with UO-31 renal was above 100 µM throughout. The GI50 in the assay on ACHN renal is 0.674 µM and 0.216 µM; in the assay on HCT-116 colon, 0.333 µM and 0.816 µM; with KM12 colon it was 0.104 µM and 0.341 µM; with RXF 393 renal, 0.239 µM; in the assay on SN12C renal it was 0.585 µM and 3.71 µM.

As for `COc1cnc2oc3ccc(O)cc3c2c1-c1ccccc1`, the TGI in the assay with A549 NSCLC is above 100 µM; in the assay with ACHN renal, above 100 µM; in the assay on DU-145 prostate it was above 100 µM; in the assay with HCT-116 colon it was 45 µM; in the assay with HL-60(TB) leukemia, above 100 µM; in the assay with HOP-92 NSCLC, above 100 µM. Further, the TGI in the assay on KM12 colon is above 100 µM; in the assay with OVCAR-5 ovarian it was 68.2 µM; in the assay with PC-3 prostate, above 100 µM; in the assay on RXF 393 renal it was above 100 µM; with SN12C renal, above 100 µM; in the assay with T-47D breast it was above 100 µM. This molecule also yielded a TGI in the assay with UO-31 renal above 100 µM.

On to `Cc1nsc2cc(Cl)n(C)c(=O)c12`, for which the TGI in the assay on A549 NSCLC, in the assay with ACHN renal, with HCT-116 colon, in the assay on HL-60(TB) leukemia, in the assay with HOP-92 NSCLC and in the assay on KM12 colon was above 100 µM in each case. Also, the TGI in the assay with OVCAR-5 ovarian, in the assay on RXF 393 renal, in the assay with SN12C renal, with SR leukemia and with UO-31 renal was above 100 µM in each case.
